# Where two headings read alike, the source gives them in different places.
# Legend:
# [1] = assay type: physicochemical; details: 298.15 K, 0.1 MPa
# [2] = cited from earlier work
# [3] = assay type: physicochemical; details: 298.15 K; for Gibbs energy of transfer of RST from neat water to the mixture / ΔsolnG°, standard Gibbs free energy of dissolution: 0.1 MPa
# [4] = cited from earlier work; remark: listed apart in the source
structure (smiles),measurement,setting,value
"CC(C)c1nc(N(C)S(C)(=O)=O)nc(-c2ccc(F)cc2)c1/C=C/[C@@H](O)C[C@@H](O)CC(=O)[O-].CC(C)c1nc(N(C)S(C)(=O)=O)nc(-c2ccc(F)cc2)c1/C=C/[C@@H](O)C[C@@H](O)CC(=O)[O-].[Ca+2] [RST, (E)-7-[4-(4-fluorophenyl)-6-isopropyl-2-[methyl(methylsulfonyl)amino]pyrimidin-5-yl]-(3R,5S)-3,5-dihydroxyhept-6-enoic acid, calcium salt (2:1)]",D (derivative of the Gibbs energy of transfer),[1]; x1 = 0.65,–3.54 kJ·mol^–1
same,"G1,3 (Kirkwood–Buff integral, PEG400–RST)",[1]; x1 = 0.65,–321.5 cm^3·mol^–1
same,"G2,3 (Kirkwood–Buff integral, water–RST)",[1]; x1 = 0.65,–643.4 cm^3·mol^–1
same,Vcor (correlation volume),[1]; x1 = 0.65,5144 cm^3·mol^–1
same,"100 δx1,3 (preferential solvation parameter of RST by PEG400)",[1]; x1 = 0.70,1.46
same,D (derivative of the Gibbs energy of transfer),[1]; x1 = 0.70,–3.21 kJ·mol^–1
same,"G1,3 (Kirkwood–Buff integral, PEG400–RST)",[1]; x1 = 0.70,–321.0 cm^3·mol^–1
same,"G2,3 (Kirkwood–Buff integral, water–RST)",[1]; x1 = 0.70,–664.5 cm^3·mol^–1
same,Vcor (correlation volume),[1]; x1 = 0.70,5379 cm^3·mol^–1
same,"100 δx1,3 (preferential solvation parameter of RST by PEG400)",[1]; x1 = 0.75,1.31
same,D (derivative of the Gibbs energy of transfer),[1]; x1 = 0.75,–2.92 kJ·mol^–1
same,"G1,3 (Kirkwood–Buff integral, PEG400–RST)",[1]; x1 = 0.75,–320.4 cm^3·mol^–1
same,"G2,3 (Kirkwood–Buff integral, water–RST)",[1]; x1 = 0.75,–682.1 cm^3·mol^–1
same,Vcor (correlation volume),[1]; x1 = 0.75,5607 cm^3·mol^–1
same,"100 δx1,3 (preferential solvation parameter of RST by PEG400)",[1]; x1 = 0.80,1.09
same,D (derivative of the Gibbs energy of transfer),[1]; x1 = 0.80,–2.67 kJ·mol^–1
same,"G1,3 (Kirkwood–Buff integral, PEG400–RST)",[1]; x1 = 0.80,–319.6 cm^3·mol^–1
same,"G2,3 (Kirkwood–Buff integral, water–RST)",[1]; x1 = 0.80,–691.4 cm^3·mol^–1
same,Vcor (correlation volume),[1]; x1 = 0.80,5827 cm^3·mol^–1
same,"100 δx1,3 (preferential solvation parameter of RST by PEG400)",[1]; x1 = 0.85,0.83
same,D (derivative of the Gibbs energy of transfer),[1]; x1 = 0.85,–2.45 kJ·mol^–1
same,"G1,3 (Kirkwood–Buff integral, PEG400–RST)",[1]; x1 = 0.85,–318.5 cm^3·mol^–1
same,"G2,3 (Kirkwood–Buff integral, water–RST)",[1]; x1 = 0.85,–687.6 cm^3·mol^–1
same,Vcor (correlation volume),[1]; x1 = 0.85,6039 cm^3·mol^–1
same,"100 δx1,3 (preferential solvation parameter of RST by PEG400)",[1]; x1 = 0.90,0.54
same,D (derivative of the Gibbs energy of transfer),[1]; x1 = 0.90,–2.26 kJ·mol^–1
same,"G1,3 (Kirkwood–Buff integral, PEG400–RST)",[1]; x1 = 0.90,–317.0 cm^3·mol^–1
same,"G2,3 (Kirkwood–Buff integral, water–RST)",[1]; x1 = 0.90,–668.0 cm^3·mol^–1
same,Vcor (correlation volume),[1]; x1 = 0.90,6246 cm^3·mol^–1
same,"100 δx1,3 (preferential solvation parameter of RST by PEG400)",[1]; x1 = 0.95,0.25
same,D (derivative of the Gibbs energy of transfer),[1]; x1 = 0.95,–2.08 kJ·mol^–1
same,"G1,3 (Kirkwood–Buff integral, PEG400–RST)",[1]; x1 = 0.95,–315.3 cm^3·mol^–1
same,"G2,3 (Kirkwood–Buff integral, water–RST)",[1]; x1 = 0.95,–633.9 cm^3·mol^–1
same,Vcor (correlation volume),[1]; x1 = 0.95,6447 cm^3·mol^–1
same,"100 δx1,3 (preferential solvation parameter of RST by PEG400)",[1]; x1 = 1.00,0.00
same,D (derivative of the Gibbs energy of transfer),[1]; x1 = 1.00,–1.93 kJ·mol^–1
same,"G1,3 (Kirkwood–Buff integral, PEG400–RST)",[1]; x1 = 1.00,–313.7 cm^3·mol^–1
same,"G2,3 (Kirkwood–Buff integral, water–RST)",[1]; x1 = 1.00,–590.9 cm^3·mol^–1
same,Vcor (correlation volume),[1]; x1 = 1.00,6645 cm^3·mol^–1
same,pKa,[2]; GastroPlus input parameter (Table 5),4
same,hydrogen-bonding acceptor counts,[2]; GastroPlus input parameter,10
same,hydrogen-bonding donor counts,[2]; GastroPlus input parameter,3
same,maximum solubility in PEG400,[2]; PEG400,65.7 mg/g
same,aqueous solubility,[2]; as reported in NLM PubChem,8.86 × 10^–2 g/L
same,solubility (mg/mL) in water at 25 (°C),"[2]; water, 25 °C, GastroPlus input parameter",0.33 mg/mL
same,"Gibbs energy of transfer of RST from neat water to {PEG400 + water} mixtures, range",[3]; all mixtures,−2.39 to −14.24 kJ·mol^–1
same,Gibbs energy of transfer of RST from neat water to the mixture,[3]; w1 = 0.00 (neat water),0.00 kJ·mol^–1
same,"ΔsolnG°, standard Gibbs free energy of dissolution",[3]; w1 = 0.00 (neat water),32.36 kJ·mol^–1
same,Gibbs energy of transfer of RST from neat water to the mixture,[3]; w1 = 0.10 PEG400,–2.39 kJ·mol^–1
same,"ΔsolnG°, standard Gibbs free energy of dissolution",[3]; w1 = 0.10 PEG400,29.97 kJ·mol^–1
same,Gibbs energy of transfer of RST from neat water to the mixture,[3]; w1 = 0.20 PEG400,–3.53 kJ·mol^–1
same,"ΔsolnG°, standard Gibbs free energy of dissolution",[3]; w1 = 0.20 PEG400,28.83 kJ·mol^–1
same,Gibbs energy of transfer of RST from neat water to the mixture,[3]; w1 = 0.30 PEG400,–5.49 kJ·mol^–1
same,"ΔsolnG°, standard Gibbs free energy of dissolution",[3]; w1 = 0.30 PEG400,26.86 kJ·mol^–1
same,Gibbs energy of transfer of RST from neat water to the mixture,[3]; w1 = 0.40 PEG400,–7.93 kJ·mol^–1
same,"ΔsolnG°, standard Gibbs free energy of dissolution",[3]; w1 = 0.40 PEG400,24.42 kJ·mol^–1
same,Gibbs energy of transfer of RST from neat water to the mixture,[3]; w1 = 0.50 PEG400,–8.49 kJ·mol^–1
same,"ΔsolnG°, standard Gibbs free energy of dissolution",[3]; w1 = 0.50 PEG400,23.87 kJ·mol^–1
same,Gibbs energy of transfer of RST from neat water to the mixture,[3]; w1 = 0.60 PEG400,–8.94 kJ·mol^–1
same,"ΔsolnG°, standard Gibbs free energy of dissolution",[3]; w1 = 0.60 PEG400,23.42 kJ·mol^–1
same,Gibbs energy of transfer of RST from neat water to the mixture,[3]; w1 = 0.70 PEG400,–9.46 kJ·mol^–1
same,"ΔsolnG°, standard Gibbs free energy of dissolution",[3]; w1 = 0.70 PEG400,22.90 kJ·mol^–1
same,Gibbs energy of transfer of RST from neat water to the mixture,[3]; w1 = 0.80 PEG400,–10.34 kJ·mol^–1
same,"ΔsolnG°, standard Gibbs free energy of dissolution",[3]; w1 = 0.80 PEG400,22.02 kJ·mol^–1
same,"ΔsolnG°, standard Gibbs free energy of dissolution",[3]; w1 = 0.90 PEG400,21.15 kJ·mol^–1
same,Gibbs energy of transfer of RST from neat water to the mixture,[3]; w1 = 1.00 (neat PEG400),–14.24 kJ·mol^–1
same,"ΔsolnG°, standard Gibbs free energy of dissolution",[3]; w1 = 1.00 (neat PEG400),18.12 kJ·mol^–1
same,elimination half-life,[4]; GastroPlus input parameter,19 h
same,total clearance,[4]; GastroPlus input parameter,0.455 L/h
same,volume of distribution,[4]; GastroPlus input parameter,2.23 L/kg
same,oral bioavailability,[4]; reported,~20%
